Measured values: US9321759B2, “Methods and use of bifunctional enzyme-building clamp-shaped molecules” (The Trustees Of The University Of Pennsylvania, priority 2011, dated 2016)
One block for each compound: values may come before it.

Legend:
EGFR [1] = biological target: T1, EGFR (Homo sapiens, UniProt P00533); experiment: Phosphorylation of EGFR Tyr residues in NE91 cells (Western blot); assay type: cell-based; set-up: expressed in transfected cells; host or cells: NE91 mouse fibroblasts; details: FIG. 3
T1 sequence (P00533 25-1210): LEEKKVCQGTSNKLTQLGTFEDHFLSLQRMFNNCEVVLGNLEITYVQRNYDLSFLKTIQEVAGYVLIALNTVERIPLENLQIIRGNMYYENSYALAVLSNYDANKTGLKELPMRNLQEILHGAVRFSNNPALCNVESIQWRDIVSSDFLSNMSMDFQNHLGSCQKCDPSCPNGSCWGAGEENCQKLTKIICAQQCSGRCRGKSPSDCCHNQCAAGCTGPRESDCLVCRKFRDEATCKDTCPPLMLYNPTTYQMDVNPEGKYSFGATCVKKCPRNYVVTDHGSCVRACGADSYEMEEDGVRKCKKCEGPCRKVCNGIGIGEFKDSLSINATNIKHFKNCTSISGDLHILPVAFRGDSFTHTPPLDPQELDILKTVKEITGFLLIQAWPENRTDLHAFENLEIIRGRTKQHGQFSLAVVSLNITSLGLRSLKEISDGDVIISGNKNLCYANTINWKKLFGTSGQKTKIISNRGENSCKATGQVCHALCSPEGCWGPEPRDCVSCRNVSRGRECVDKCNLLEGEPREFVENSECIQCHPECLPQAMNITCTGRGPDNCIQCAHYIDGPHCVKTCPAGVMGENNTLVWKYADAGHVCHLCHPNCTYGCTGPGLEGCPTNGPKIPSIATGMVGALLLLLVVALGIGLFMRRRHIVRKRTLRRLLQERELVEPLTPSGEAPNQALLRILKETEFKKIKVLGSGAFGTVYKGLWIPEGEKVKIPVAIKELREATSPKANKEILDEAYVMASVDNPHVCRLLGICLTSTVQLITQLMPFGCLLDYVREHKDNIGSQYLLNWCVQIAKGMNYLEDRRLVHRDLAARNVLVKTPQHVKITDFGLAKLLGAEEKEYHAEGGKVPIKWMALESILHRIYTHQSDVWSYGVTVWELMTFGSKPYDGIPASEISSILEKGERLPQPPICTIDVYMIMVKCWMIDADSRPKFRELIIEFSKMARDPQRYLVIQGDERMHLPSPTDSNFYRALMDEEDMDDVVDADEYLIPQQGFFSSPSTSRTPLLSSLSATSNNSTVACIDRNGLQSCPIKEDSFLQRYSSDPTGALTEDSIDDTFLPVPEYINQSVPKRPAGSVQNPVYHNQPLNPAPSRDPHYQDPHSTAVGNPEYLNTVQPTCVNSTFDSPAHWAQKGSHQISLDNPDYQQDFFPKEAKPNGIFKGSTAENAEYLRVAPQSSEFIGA
Procedure: NE91 cells (mouse fibroblasts over-expressing wild type human type EGFR) were starved overnight, incubated with an exemplary mutation mimicking compound (designated EEO3, see below; 0.1 μM; lanes 2, 6 of FIG. 2), Tarceva® (0.1 μM; lanes 3, 7 of FIG. 2), or both (lanes 4, 8 of FIG. 2) for one hour, and harvested (lanes 1-4 of FIG. 2), or induced with EGF (50 ng/mL) for 15 minutes and harvested. Equal amounts of total protein were loaded on 10% SDS-PAGE gel, separated, transferred to a PVDF membrane, and probed with pY99, pERK antibodies (Santa Cruz Biotechnology), or antibodies against specific phosphotyrosines of EGFR (pY845, pY1068, pY992) or AKT phosphor-serine (473; Cell Signaling Technology). Total EGFR and γ-tubulin levels were determined as controls using the 1005 (Santa Cruz Biotechnology) and GTU88 (Sigma) Abs, respectively.
To estimate the inhibitory activity of Compound C318 on EGFR signaling, its effect on the phosphorylation of specific Tyr residues of EGFR kinase was tested (see FIG. 3). The methods used were the same as described in Example 3.

EGFR [2] = biological target: T1, EGFR; experiment: EGFR kinase assay, HotSpot technology; assay type: biochemical; set-up: purchased Reaction Biology Corp. (Malvern, Pa.); details: ATP 10 μmol/L, substrate poly[Glu:Tyr]
Procedure: (§1) In an additional set of tests, EGFR assays were done to determine IC50 values using HotSpot^SM technology with the peptide substrate poly[Glu:Tyr] (4:1, 0.2 mg/ml). These tests were conducted by Reaction Biology Corp. (Malvern, Pa.; http://www.reactionbiology.com). Kinase reactions were carried out in 20 mmol/L HEPES (pH 7.5), 10 mmol/L MgCl2, 1 mmol/L EGTA, 0.02% Brij 35, 0.02 mg/mL bovine serum albumin, 2 mmol/L DTT, and 1% DMSO. The final concentration of ATP was 10 μmol/L. Purified recombinant kinases were incubated with serial 3-fold dilutions of test compounds starting at a final concentration of 1 μmol/L. ATP concentration was 10 μmol/L. Dose response curves were fitted using Prism 5.0 from Graph-Pad Software.

EGFR (L858R, T790M) = biological target: T2, EGFR (L858R, T790M) (Homo sapiens, UniProt P00533, L858R/T790M); experiment: Kinase assay with Tarceva-resistant EGFR mutant, HotSpot technology; assay type: biochemical
T2 construct: purchased Reaction Biology Corp. (Malvern, Pa.)
T2 sequence (P00533 25-1210 T790M/L858R): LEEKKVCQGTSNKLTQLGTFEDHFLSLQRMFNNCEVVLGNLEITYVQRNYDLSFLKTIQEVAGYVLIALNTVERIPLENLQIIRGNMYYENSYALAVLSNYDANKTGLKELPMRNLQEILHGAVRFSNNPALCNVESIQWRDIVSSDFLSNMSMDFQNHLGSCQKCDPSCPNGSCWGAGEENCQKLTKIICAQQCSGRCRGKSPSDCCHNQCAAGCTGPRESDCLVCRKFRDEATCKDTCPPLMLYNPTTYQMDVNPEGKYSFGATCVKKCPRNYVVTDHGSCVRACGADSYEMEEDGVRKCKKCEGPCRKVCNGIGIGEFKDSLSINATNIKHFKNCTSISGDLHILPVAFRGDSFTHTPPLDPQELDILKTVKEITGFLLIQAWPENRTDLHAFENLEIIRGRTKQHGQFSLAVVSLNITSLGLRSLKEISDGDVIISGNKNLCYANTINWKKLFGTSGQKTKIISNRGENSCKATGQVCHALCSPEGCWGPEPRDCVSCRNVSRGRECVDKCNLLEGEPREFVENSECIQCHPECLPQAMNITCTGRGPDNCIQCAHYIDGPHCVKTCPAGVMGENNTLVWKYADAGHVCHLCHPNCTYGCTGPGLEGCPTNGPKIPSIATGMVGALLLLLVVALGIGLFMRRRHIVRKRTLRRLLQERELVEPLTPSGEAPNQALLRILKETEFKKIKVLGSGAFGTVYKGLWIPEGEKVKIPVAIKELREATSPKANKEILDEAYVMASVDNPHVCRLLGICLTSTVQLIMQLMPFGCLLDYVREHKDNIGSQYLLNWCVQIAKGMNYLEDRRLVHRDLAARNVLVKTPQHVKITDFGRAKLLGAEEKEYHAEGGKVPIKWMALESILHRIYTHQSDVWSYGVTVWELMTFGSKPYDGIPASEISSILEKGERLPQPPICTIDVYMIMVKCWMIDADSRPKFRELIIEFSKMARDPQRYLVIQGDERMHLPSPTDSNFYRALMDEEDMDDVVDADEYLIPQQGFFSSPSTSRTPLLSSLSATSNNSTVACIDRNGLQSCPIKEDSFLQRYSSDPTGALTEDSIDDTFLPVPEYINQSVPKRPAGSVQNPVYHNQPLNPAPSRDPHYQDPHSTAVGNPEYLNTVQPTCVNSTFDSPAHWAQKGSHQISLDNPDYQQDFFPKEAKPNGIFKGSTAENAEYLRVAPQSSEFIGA
Procedure: as §1
All these inhibitors were also tested by the same kinase assay using the Tarceva®-resistant EGFR kinase mutant, EGFR (L858R, T790M).

[3] = tested on: EGFR-over-expressing NE91 cells; experiment: Anchorage independent growth (soft agar colony formation) of NE91 cells; assay type: cell-based, mouse; details: 0.1 μM, colonies counted after 3 weeks, FIG. 4(D)
Procedure: To evaluate the inhibitory effect of C318 on cell proliferation in vitro, the compound was tested for inhibition of the anchorage independent growth of EGFR-over-expressing NE91 cells (FIG. 4). Anchorage independent growth was determined by assessing the colony-forming efficiency of cells suspended in soft agar. Cells (5×10^3) were suspended in a 1 ml top layer (0.375% agarose 10% FBS/DMEM) in 6-cm culture dishes containing a 3 ml cell-free feeder layer consisting of 0.5% agarose in DMEM supplemented with 10% FBS and 20 mM Hepes (pH 7.5). Culture dishes were fed by 0.7 ml 10% FBS/DMEM containing 0.1 uM of C318 or Tarceva® once every 5 days. Colonies were visualized and counted after 3 weeks after staining with p-iodonitrotetrazolium violet (1 mg/ml).

inhibitory effects on EGFR Tyr phosphorylation relative to C-318 (EGFR [1]): not as strong as that of C-318
Structure (SMILES): O=C(CSCCO)Nc1ccc2ncnc(Nc3cc(Cl)c(Cl)cc3F)c2c1 [Compound C300]

inhibitory effects on EGFR Tyr phosphorylation relative to C-318 (EGFR [1]): not as strong as that of C-318
Structure (SMILES): O=C(CSc1nnc(SCC2CC2)s1)Nc1ccc2ncnc(Nc3cc(Cl)c(Cl)cc3F)c2c1 [Compound C318F]

IC50 (EGFR [2]): 0.5 to 1 nM
activity to inhibit EGFR (L858R, T790M) kinase, comparison (EGFR (L858R, T790M); FIG. 7): better activity than C318
inhibition at 0.1 µM (EGFR (L858R, T790M); at 100 nM, ATP 10 μmol/L): ~20%
Structure (SMILES): O=C(O)CC(Sc1nn(CC(=O)Nc2ccc3ncnc(Nc4cc(Cl)c(Cl)cc4F)c3c2)c(=S)s1)C(=O)O (stereo not shown) [Compound C318N, 2-([4-[([4-[(4,5-dichloro-2-fluorophenyl)amino]quinazolin-6-yl]carbamoyl)methyl]-5-sulfanylidene-4,5-dihydro-1,3,4-thiadiazol-2-yl]sulfanyl)butanedioic acid]

IC50 (EGFR [2]): 0.5 to 1 nM
inhibition of phosphorylation of Tyr 992 of EGFR (EGFR [1]; compared with Tarceva): but not Tyr 992
inhibition of phosphorylation of Tyr 1068 of EGFR (EGFR [1]; compared with Tarceva): stronger activity than Tarceva®
inhibition of EGFR(L858R, T790M) (EGFR (L858R, T790M); at 100 nM, ATP 10 μmol/L): about the same inhibition as Tarceva®
Structure (SMILES): O=C(O)CC(Sc1nnc(SCC(=O)Nc2ccc3ncnc(Nc4cc(Cl)c(Cl)cc4F)c3c2)s1)C(=O)O (stereo not shown) [Compound C318]
inhibition of anchorage independent growth [3]: more active than Tarceva®
